Source: patent US20090071883A1 (priority 2007, published 2009)

Legend:
[1] = system: Cryptosporidium parvum oocysts; settings: pH 7; cited from earlier work
[2] = system: Erwinia carotovora; type: cell-based

For `NCl` [monochloramine], the “approximate CT values for 99% inactivation” value [1] is given as ~7200.
In the case of `[O][Cl+][O-]` [chlorine dioxide], the “mean log cfu Erwinia carotovora” value [2] is listed as 0.0 log cfu and the “approximate CT values for 99% inactivation” value [1] is listed as ~78.
